Tests used:
[1] = tested on: HUVSMC; experiment: Proliferation of human umbilical vein smooth muscle cells; format: cell-based; conditions: VSMC, 120 h, 5 days
Protocol: Human umbilical vein smooth muscle cells (HUVSMC), tissue explants from a neonate (HRI— passage 2), were seeded into 96 well plates at 1×10^3 cells per well, and allowed to attach for 24 hours. They were then washed twice and incubated in medium without FBS for 24-48 hours to serum-starve them. Test compounds were prepared in medium without FBS and added to the plates and incubated for one hour. Medium with FBS was added to give a final concentration of 10% and the plates incubated for 5 days until the controls were just confluent. Final analogue concentration was therefore either a series from 150 μM to 1.2 μM, or single concentrations of 10 μM. The difference in absorbance between treated cells and untreated cells was calculated using the formula, test/control*100, to obtain the percentage change caused by the test compound. As well, an IC50 for each compound was calculated.

[2] = tested on: splenocytes (T and B cells); experiment: Murine splenocyte viability and proliferation (Con A, LPS, no mitogen; MTT); format: cell-based, mouse; conditions: 10 μM, 3 day; for proliferation of T and B cells: Con A / LPS; for effect on non-proliferating (resting) splenocytes: no mitogen
Protocol: (§1) Male Skh-1 (hairless) mice, approximately six weeks old were killed by cervical dislocation. Single cell suspensions were made from the spleen and erythrocytes were lysed in buffer (0.14M NH4Cl, 17 mM Tris, pH 7.2). The remaining splenocytes were cultured in RPMI-1640 (Gibco) supplemented with 10% (v:v) FBS, 2 mM L-glutamine, pen/strep and 50 μM 2-mercaptoethanol. Splenocytes were added to quadruplicate wells containing either the T cell mitogen concanavalin A (Con A, Sigma-Aldrich—0. 4 μg/well), the B-cell mitogen LPS (Sigma-Aldrich—1 μg/well) or no mitogen, as well as test compound at a concentration of 10 μM in DMSO. Samples were analysed after a 3 day incubation at 37° C. in 5% CO2 in air. Cell viability was assessed by adding MTT to each well, incubating for a further 4 hrs and then developing colour with 0.04N HCl in isopropanol. Supernatant samples were frozen at −80° C. and IL-6, IFN-γ and TNFα were detected in triplicate using ELISA kits (BD Biosciences).

[3] = tested on: Skh:hr-1 albino mice (UV-induced skin thickening); experiment: Murine model of UV irradiation-induced skin oedema; format: in vivo, mouse; conditions: for Change in skin thickness (mean ± SD, ×0.01 mm): 0.2 ml of 20 μM topical ×3
Text: Groups of 4-5 female Skh:hr-1 albino mice were irradiated with 1×3 MED (minimal erythemal dose) of solar simulated UV radiation, provided by a planar bank of 6 UVA tube (Hitachi 40W F40T 10/BL, black light) and one UVB tube (Philips TL 40W/12RS) with radiation filtered through a sheet of 0.125 mm cellulose acetate (Eastman Chemical Products, Kingport, Term, USA) to give 2.96×10-4 W/cm2 UVA and 1.59×10-5 W/cm2 UVB. The distance of the UV lamp from the irradiance table surface was approximately 20 cm and temperature was controlled with an electric fan. During irradiation, the cages were rotated below the lights to reduce the variation in radiation intensity in different positions.
Either test compound (0.2 ml of a 20 μM solution) or vehicle (propylene glycol/ethanol (EtOH)/water 1:2:1) was applied to the irradiated dorsal skin at 30 min, 2 h and 4 h post-irradiation. Dorsal skin fold measurements were made with a spring micrometer prior to and at 24 hr and 48 h post-UV exposure. The difference in skin thickness pre- and post-exposure to UVR was calculated for each mouse, and the differences examined between test compound and vehicle control were analysed using an unpaired two-tailed t test.
The data are presented in tables, as well as graphically as the mean percentage inhibition of skin fold thickness, calculated as [1−[(mean % change skin thickness of test group/mean % change skin thickness of control group)×100]].

[4] = tested on: TNFα; experiment: TNFα production by murine splenocytes; format: cell-based, mouse; conditions: 10 μM; LPS
Protocol: as §1

[5] = tested on: rat aortic ring; experiment: Rat aortic ring assay, contractile response to noradrenaline; conditions: 1 μg/ml
Protocol: The vasodilatory capacity was examined ex vivo using the rat aortic ring assay.
Male Sprague-Dawley rats (250±50 g) were euthanased with 80% CO2 and 20% O2. The thoracic aorta was excised and quickly mounted in organ-baths as described. Full concentration-contractile curves were obtained to noradrenaline (0.1 nM-[…]) with and without test compounds delivered at a concentration of 1 μg/ml. Experiments were repeated in n=5 different rings from 5 different animals. Only one compound at any one concentration was tested on any one ring from any one animal. Sigmoidal dose response curves were fitted for the data and the logEC50 and the Ema, calculated (Prism 4, GraphPad Software). The difference in these values between the presence and absence of test compound was calculated using a two-tailed paired t test. The effects of β-oestrodiol and vehicle alone were examined as a positive and negative control respectively.

[6] = 24 hrs post-irradiation, vehicle 78 ± 23
[7] = 48 hrs post-irradiation, vehicle 147 ± 37

Row | Structure (SMILES) | IC50 [1] [µM] | proliferation of T and B cells [2] | effect on non-proliferating (resting) splenocytes [2] | Change in skin thickness (mean ± SD, ×0.01 mm) [3, 6] [×0.01 mm] | Change in skin thickness (mean ± SD, ×0.01 mm) [3, 7] [×0.01 mm] | TNFα synthesis by B cells [4] | contractile response (logEC50) of the aortic ring to noradrenaline [5] | UV-induced inflammation at 48 hrs ([3]; 48 hrs) | strength of the contractile response (Emax) [5] | UV-induced inflammation at 24 hrs ([3]; 24 hrs)
1 | Cc1c(O)ccc2c1OCC(c1cccc(O)c1)=C2 [Cpd. 14, 3′,7-Dihydroxy-8-methylisoflav-3-ene] | 64 | augmented | augmented | 77 ± 5.6 | 137 ± 16 | induced | – | – | – | –
2 | COc1cccc(C2=Cc3ccc(O)cc3OC2)c1 [Cpd. 16, 7-Hydroxy-3′-methoxyisoflav-3-ene] | 63 | augmented | augmented | 61 ± 13 | 111 ± 15 | induced | – | – | – | –
3 | COc1ccc(C2=Cc3ccc(O)cc3OC2)cc1OC [Cpd. 18, 7-Hydroxy-3′,4′-dimethoxyisoflav-3-ene] | 140 | – | – | – | – | – | inhibited | – | – | –
4 | COc1ccc(C2=Cc3ccc(O)c(C)c3OC2)cc1OC [Cpd. 19, 7-Hydroxy-3′,4′-dimethoxy-8-methylisoflav-3-ene] | 34 | – | – | 63 ± 8.1 | 96 ± 5 | inhibited | – | significantly inhibited | – | –
5 | Oc1ccc(C2=Cc3ccc(O)c(Br)c3OC2)cc1 [Cpd. 20, 4′,7-Dihydroxy-8-bromoisoflav-3-ene] | 32 | inhibited | suppressive | 38 ± 4 | 123 ± 39 | induced | significantly inhibited | – | reduced | significantly inhibited
6 | Oc1ccc2c(c1)OCC(c1ccc(Br)cc1)=C2 [Cpd. 21, 4′-Bromo-7-hydroxyisoflav-3-ene] | 8 | – | – | – | – | induced | inhibited | – | – | –

— patent US20090233999A1, “COMPOSITIONS AND THERAPEUTIC METHODS INVOLVING ISOFLAVONES AND ANALOGUES THEREOF” (NOVOGEN RESEARCH PTY LTD, priority 1999, published 2009)
